Patent publication US20070167492A1, “Molluscicidal agents” (priority 2003, published 2007)

Key:
[1] = tested on: Deroceras reticulatum (grey field slug); experiment: Example 2: pot re-test, treated winter wheat seed with 5 adult slugs per pot, 7 days; assay type: in vivo
Procedure, shortened: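 Pots sown with 40 treated winter wheat seeds on quartz sand over potting soil, each given 5 adult grey field slugs, kept at 18-19° C, ~95% RH, ~18 h light, no overhead irrigation; 4 replicates. Damaged seeds, intact plants, dead slugs and fecal pellets counted at 2, 3, 7 days; F-tests and Student tests.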

[2] = tested on: Deroceras reticulatum (grey field slug); experiment: Example 1: pot test, treated winter wheat seed with 5 adult slugs per pot, 14 days; assay type: in vivo
Procedure, shortened: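 Fludioxonil-disinfected winter wheat seed (Kampa, 40 per pot) sown on quartz sand over potting soil with 5 adult slugs per pot; ±15° C., ±90% RH, 12 h light/12 h dark, 4 replicates. Damaged seeds, plants, dead slugs and fecal pellets counted up to day 14; F-tests and Student-tests.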

[3] = Example 2, 8 ml formulated per kg seed, 2 days after sowing
[4] = Example 2, 8 ml formulated per kg seed, 3 days after sowing
[5] = Example 2, 8 ml formulated per kg seed, 7 days after sowing
[6] = Example 2, 12 ml formulated per kg seed, 2 days after sowing
[7] = Example 2, 12 ml formulated per kg seed, 3 days after sowing
[8] = Example 2, 12 ml formulated per kg seed, 7 days after sowing
[9] = Example 2, after 2, 3 and 7 days
[10] = 2 ml formulated per kg seed, 2 days after sowing
[11] = 2 ml formulated per kg seed, 3 days after sowing
[12] = 2 ml formulated per kg seed, 7 days after sowing
[13] = 2 ml formulated per kg seed, 10 days after sowing
[14] = 2 ml formulated per kg seed, 14 days after sowing
[15] = 4 ml formulated per kg seed, 2 days after sowing
[16] = 4 ml formulated per kg seed, 3 days after sowing
[17] = 4 ml formulated per kg seed, 7 days after sowing
[18] = 4 ml formulated per kg seed, 10 days after sowing
[19] = 4 ml formulated per kg seed, 14 days after sowing
[20] = 8 ml formulated per kg seed, 2 days after sowing
[21] = 8 ml formulated per kg seed, 3 days after sowing
[22] = 8 ml formulated per kg seed, 7 days after sowing
[23] = 8 ml formulated per kg seed, 10 days after sowing
[24] = 8 ml formulated per kg seed, 14 days after sowing
[25] = 12 ml formulated per kg seed, 2 days after sowing
[26] = 12 ml formulated per kg seed, 3 days after sowing
[27] = 12 ml formulated per kg seed, 7 days after sowing
[28] = 12 ml formulated per kg seed, 10 days after sowing
[29] = 12 ml formulated per kg seed, 14 days after sowing

With O=[N+]([O-])NC1=NCCN1Cc1ccc(Cl)nc1 [imidacloprid] the “result of seed treatment against slugs (conclusion)” value ([1]; Example 2) was “acceptable result”, the “percentage of damaged seeds after 7 days” value ([1]; Example 2, 8 ml formulated per kg seed) was 23% and the “Mean number of damaged seeds per pot” value [1, 3] was 4.8. For the same molecule, the “Mean number of dead slugs per pot” value [1, 3] was 0, the “Mean number of damaged seeds per pot” value [1, 4] was 9.0 and the “Mean number of dead slugs per pot” value [1, 4] was 0. The “Mean number of damaged seeds per pot” value [1, 5] was 9.0, the “Mean number of dead slugs per pot” value [1, 5] was 1.0 and the “percentage of damaged seeds after 7 days” value ([1]; Example 2, 12 ml formulated per kg seed) was 12%. The “Mean number of damaged seeds per pot” value [1, 6] was 1.8, the “Mean number of dead slugs per pot” value [1, 6] was 0 and the “Mean number of damaged seeds per pot” value [1, 7] was 3.8. For the same molecule, the “Mean number of dead slugs per pot” value [1, 7] was 0, the “Mean number of damaged seeds per pot” value [1, 8] was 4.8 and the “Mean number of dead slugs per pot” value [1, 8] was 0.8. For the same molecule, the “number of fecal pellets per pot relative to the untreated control” value [1, 9] was “significant reduction in the number of fecal pellets”, the “plants present relative to the untreated seed” value [1, 9] was “significantly more plants present” and the “number of damaged seeds relative to the untreated seed” value ([1]; Example 2, two days after the start) was “significant reduction in the number of damaged seeds”. The “Mean number of fecal pellets per pot” value ([1]; dosage 8 ml, 2 days) was 6, the “Mean number of plants present per pot” value ([1]; dosage 8 ml, 2 days) was 7.8 and the “Mean number of fecal pellets per pot” value ([1]; dosage 8 ml, 3 days) was 17. The “Mean number of plants present per pot” value ([1]; dosage 8 ml, 3 days) was 12.3, the “Mean number of fecal pellets per pot” value ([1]; dosage 8 ml, 7 days) was 29 and the “Mean number of plants present per pot” value ([1]; dosage 8 ml, 7 days) was 18.3. The “number of utilizable plants after 7 days” value ([1]; dosage 8 ml, 7 days) was 13.5, the “Mean number of fecal pellets per pot” value ([1]; dosage 12 ml, 2 days) was 3 and the “Mean number of plants present per pot” value ([1]; dosage 12 ml, 2 days) was 16.0. For the same molecule, the “Mean number of fecal pellets per pot” value ([1]; dosage 12 ml, 3 days) was 17, the “Mean number of plants present per pot” value ([1]; dosage 12 ml, 3 days) was 24.5 and the “Mean number of fecal pellets per pot” value ([1]; dosage 12 ml, 7 days) was 28. The “Mean number of plants present per pot” value ([1]; dosage 12 ml, 7 days) was 28.3, the “number of utilizable plants after 7 days” value ([1]; dosage 12 ml, 7 days) was 22.8 and the “number of utilizable plants after 14 days” value (“number … after 14 days” below) ([2]; 2 ml formulated per kg seed) was 2.5. For the same molecule, the “percentage of damaged seeds after 14 days” value (“percentage … after 14 days” below) ([2]; 2 ml formulated per kg seed) was 86%, the “Mean number of damaged seeds per pot” value [2, 10] was 2.8 and the “Mean number of dead slugs per pot” value [2, 10] was 0. For the same molecule, the “Mean number fecal pellets per pot” value [2, 11] was 33, the “Mean number of damaged seeds per pot” value [2, 11] was 10.3 and the “Mean number of dead slugs per pot” value [2, 11] was 0. For the same molecule, the “Mean number of plants present per pot” value [2, 11] was 3.8, the “Mean number fecal pellets per pot” value [2, 12] was 118 and the “Mean number of damaged seeds per pot” value [2, 12] was 33.0. The “Mean number of dead slugs per pot” value [2, 12] was 0, the “Mean number of plants present per pot” value [2, 12] was 2.8 and the “Mean number fecal pellets per pot” value [2, 13] was 109. For the same molecule, the “Mean number of damaged seeds per pot” value [2, 13] was 33.5, the “Mean number of dead slugs per pot” value [2, 13] was 0.3 and the “Mean number of plants present per pot” value [2, 13] was 4.5. The “Mean number fecal pellets per pot” value [2, 14] was 116, the “Mean number of damaged seeds per pot” value [2, 14] was 34.3 and the “Mean number of dead slugs per pot” value [2, 14] was 0.5. The “Mean number of plants present per pot” value [2, 14] was 3.3, the “number … after 14 days” value ([2]; 4 ml formulated per kg seed) was 0.8 and the “percentage … after 14 days” value ([2]; 4 ml formulated per kg seed) was 81%. For the same molecule, the “Mean number of damaged seeds per pot” value [2, 15] was 1.0, the “Mean number of dead slugs per pot” value [2, 15] was 0 and the “Mean number fecal pellets per pot” value [2, 16] was 21. For the same molecule, the “Mean number of damaged seeds per pot” value [2, 16] was 7.3, the “Mean number of dead slugs per pot” value [2, 16] was 0.3 and the “Mean number of plants present per pot” value [2, 16] was 2.3. The “Mean number fecal pellets per pot” value [2, 17] was 108, the “Mean number of damaged seeds per pot” value [2, 17] was 32.8 and the “Mean number of dead slugs per pot” value [2, 17] was 0.3. For the same molecule, the “Mean number of plants present per pot” value [2, 17] was 1.3, the “Mean number fecal pellets per pot” value [2, 18] was 118 and the “Mean number of damaged seeds per pot” value [2, 18] was 31.5. For the same molecule, the “Mean number of dead slugs per pot” value [2, 18] was 0.3, the “Mean number of plants present per pot” value [2, 18] was 4.0 and the “Mean number fecal pellets per pot” value [2, 19] was 126. For the same molecule, the “Mean number of damaged seeds per pot” value [2, 19] was 32.3, the “Mean number of dead slugs per pot” value [2, 19] was 0.3 and the “Mean number of plants present per pot” value [2, 19] was 3.5. For the same molecule, the “number … after 14 days” value ([2]; 8 ml formulated per kg seed) was 7.3, the “percentage … after 14 days” value ([2]; 8 ml formulated per kg seed) was 59% and the “Mean number of damaged seeds per pot” value [2, 20] was 1.3. The “Mean number of dead slugs per pot” value [2, 20] was 0, the “Mean number fecal pellets per pot” value [2, 21] was 11 and the “Mean number of damaged seeds per pot” value [2, 21] was 4.5. For the same molecule, the “Mean number of dead slugs per pot” value [2, 21] was 0, the “Mean number of plants present per pot” value [2, 21] was 13.8 and the “Mean number fecal pellets per pot” value [2, 22] was 48. For the same molecule, the “Mean number of damaged seeds per pot” value [2, 22] was 23.8, the “Mean number of dead slugs per pot” value [2, 22] was 0 and the “Mean number of plants present per pot” value [2, 22] was 9.0. The “Mean number fecal pellets per pot” value [2, 23] was 65, the “Mean number of damaged seeds per pot” value [2, 23] was 23.5 and the “Mean number of dead slugs per pot” value [2, 23] was 0.3. The “Mean number of plants present per pot” value [2, 23] was 9.5, the “Mean number fecal pellets per pot” value [2, 24] was 75 and the “Mean number of damaged seeds per pot” value [2, 24] was 23.8. For the same molecule, the “Mean number of dead slugs per pot” value [2, 24] was 0.5, the “Mean number of plants present per pot” value [2, 24] was 10.5 and the “number … after 14 days” value ([2]; 12 ml formulated per kg seed) was 14.3. For the same molecule, the “percentage … after 14 days” value ([2]; 12 ml formulated per kg seed) was 22%, the “Mean number of damaged seeds per pot” value [2, 25] was 0.0 and the “Mean number of dead slugs per pot” value [2, 25] was 0. The “Mean number fecal pellets per pot” value [2, 26] was 9, the “Mean number of damaged seeds per pot” value [2, 26] was 4.3 and the “Mean number of dead slugs per pot” value [2, 26] was 1.5. The “Mean number of plants present per pot” value [2, 26] was 11.8, the “Mean number fecal pellets per pot” value [2, 27] was 26 and the “Mean number of damaged seeds per pot” value [2, 27] was 11.5. For the same molecule, the “Mean number of dead slugs per pot” value [2, 27] was 1.5, the “Mean number of plants present per pot” value [2, 27] was 16.3 and the “Mean number fecal pellets per pot” value [2, 28] was 35. The “Mean number of damaged seeds per pot” value [2, 28] was 7.8, the “Mean number of dead slugs per pot” value [2, 28] was 1.5 and the “Mean number of plants present per pot” value [2, 28] was 19.0. For the same molecule, the “Mean number fecal pellets per pot” value [2, 29] was 38, the “Mean number of damaged seeds per pot” value [2, 29] was 8.8 and the “Mean number of dead slugs per pot” value [2, 29] was 1.5. For the same molecule, the “Mean number of plants present per pot” value [2, 29] was 20, the “damaged seeds relative to untreated seed” value ([2]; Example 1, 2 ml/kg) was “no controlling effect” and the “damaged seeds relative to untreated seed” value ([2]; Example 1, 4 ml/kg) was “controlling effect only after 2 and 3 days”. For the same molecule, the “damaged seeds relative to untreated seed” value ([2]; Example 1, 8 ml/kg, after 3, 7 and 14 days) was “significant controlling effect”, the “damaged seeds relative to the untreated pots” value ([2]; Example 1, 12 ml per kg of seed, at each observation) was “significantly less damaged seeds” and the “fecal pellets relative to the untreated seed” value ([2]; Example 1, 12 ml per kg of seed, each observation) was “significantly less fecal pellets”. The “dead slugs relative to the untreated seed” value ([2]; Example 1, 12 ml/kg, 3 and 7 days after the start) was “significantly more dead slugs”, the “plants present relative to the untreated seed” value ([2]; Example 1, 12 ml/kg, at each observation) was “significantly more plants present” and the “slug controlling effect (conclusion)” value ([2]; Example 1, dosage of 12 ml per kg of seed) was “good slug controlling agent”.
